The values below come from patent US5516889A, “Synthetic thrombin receptor peptides” (University Technologies International, Inc., priority 1995, dated 1996).

Data set [1] is described as follows: HPLC analysis of peptide recovered from RLM and RA organ bath solution. Format: in vitro ADME, rat. Particulars: just after peak of tissue response (5-10 min). How it is done: As illustrated in FIG. 4 (lanes C and D), the organ bath solution withdrawn from either a RLM or RA assay (30-60 μg/mL P5 or 47.5 to 95 μM), just after the peak of tissue response, was subjected to analysis by HPLC and compared with a standard solution of P5 made immediately before HPLC analysis either in buffer alone or in buffer that had been exposed to tissue under the conditions of a bioassay. […] In FIG. 4, the peptide degradation products would have been eluted at retention times earlier than those of either P5 (17.33 min) or P5--NH2 (16.83 min).

For data set [2], the target named is T1, thrombin receptor (rat gastric longitudinal muscle strips) (Rattus norvegicus, UniProt P26824).
T1 construct: Rat gastric LM strips (3×10 mm) were obtained; from tissue; host or cells: rat (Sprague Dawley) gastric longitudinal muscle strips
T1 sequence (P26824 22-432): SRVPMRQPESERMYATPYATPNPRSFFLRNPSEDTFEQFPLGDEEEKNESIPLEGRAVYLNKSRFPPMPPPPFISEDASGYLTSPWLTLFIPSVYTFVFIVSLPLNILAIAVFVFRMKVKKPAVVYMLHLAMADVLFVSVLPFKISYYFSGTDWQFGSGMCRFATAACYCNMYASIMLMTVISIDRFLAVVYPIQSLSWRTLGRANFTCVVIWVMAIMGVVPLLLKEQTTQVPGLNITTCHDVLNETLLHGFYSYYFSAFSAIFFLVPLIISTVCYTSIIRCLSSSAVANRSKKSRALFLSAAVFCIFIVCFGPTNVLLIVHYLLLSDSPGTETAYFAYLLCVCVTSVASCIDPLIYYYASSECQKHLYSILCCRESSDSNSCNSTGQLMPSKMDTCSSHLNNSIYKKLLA
Put plainly: Rat gastric longitudinal muscle (RLM) strip contractile assay. Format: cell-based. The text has this:
We obtained an evaluation of the potencies of the various TRPs, relative to P5, by using the linear portions of the concentration-effect curves, so as to calculate for several response levels the average ratio of concentrations (REC) of an individual TRP, relative to concentration of P5 that caused the same contractile response (i.e. REC =ECTRP .div.ECPS). […] In the RA assay, a similar approach to the estimate of relative potencies (REC S) was used, even though all agonists, except for P5--OCH3, appeared to cause equivalent maximal relaxation (FIG. 2, lower).
(§1) The guinea pig gastric longitudinal muscle (GLM) strips and the rat thoracic aorta (RA) ring preparations were isolated as previously described 14, 15. In brief, gastric LM strips (3×10 mm), obtained from male albino Hartley strain guinea pigs were equilibrated for about 1.5 h at 37° (in an aerated (95% O2 /5% CO2) Krebs-Henseleit buffer (3 mL) of the following composition (in mM): NaCl, 118; KCl, 4.7; CaCl2, 2.5; MgCl2, 1.2; NaHCO3, 25; KH2 PO4, 1.2; and glucose, 10. The pH was maintained at 7.4. Rat gastric LM strips (3×10 mm) were obtained, as for the GLM strips, from male albino Sprague Dawley animals (250-300 g). The stomach, opened along the greater curvature, was stripped free of all mucosal tissue under microscopic visualization and longitudinal tissue strips were cut exactly at right angles to the visible circular muscle bundles. Tissue strips were pre-equilibrated in the buffer described above. Each tissue was challenged twice each in succession at timed intervals with 50 nM carbachol (20 min intervals), 1 μM angiotensin-II (1 h intervals) and 95 μM (60 μg/mL) receptor pentapeptide (P5, SFLLR, SEQ ID NO: 2) (25 min intervals for GLM; 30-35 min for RLM); tissues were washed at 10 and 15 min after the additions of agonists. Contractions were monitored isometrically using Statham force-displacement transducers. Only tissues responding well to all three agonists were used further for the evaluation of the biological activities of P5 and other peptide agonists. For the GLM and RLM assays, concentration-effect curves for all peptides were constructed by expressing the response of each agonist as a percentage (% P595) relative to the contraction caused by 95 μM (60 μg/mL) P5 (0.9±0.1 g tension: mean ±S.E.M. for n=12 in the GLM; 1.6±0.9 g tension: mean ±S.E.M. for n=36 in the RLM).
Weighed peptide samples were routinely dissolved in 50 mM phosphate buffer, pH 7.4, to yield stock solutions, from which volumes of up to 0.2 mL were added directly to the organ bath; the concentrations of all stock solutions used were verified by quantitative amino acid analysis of aliquots. Pr-P4 and Pr-P4--NH2 were dissolved in 40 mM phosphate buffer, pH 7.4, containing 20% v/v absolute ethanol (i.e. 8 Vol of the above 50 mM phosphate buffer +2 Vol. ethanol). Control aliquots of the ethanol-containing phosphate buffer alone had no effect on either of the bioassay systems. Acetylcholine, carbachol, indomethacin, noradrenaline and angiotensin-II and thrombin (human, 3000 to 4000 U/mg; 1 U/mL.perspectiveto.10 nM) were from Sigma (St. Louis, Mo.); genistein (GS) was from ICN Biochemicals, Costa Mesa, Calif. Tyrphostin (TP) (RG 50864, also designated AG213) was obtained through the courtesy of Dr. R. R. Swillo, Rhone-Poulenc Rorer (Collegeville, Pa). […] Indomethacin was dissolved in ethanol, such that the final ethanol concentration in the organ bath was at or lower than 0.01% v/v; this concentration of ethanol alone had no effect on the bioassay systems.

The target of data set [3] is T2, thrombin receptor (guinea pig gastric longitudinal muscle strips) (Cavia porcellus, UniProt A0A286XH07).
T2 sequence (A0A286XH07 24-426): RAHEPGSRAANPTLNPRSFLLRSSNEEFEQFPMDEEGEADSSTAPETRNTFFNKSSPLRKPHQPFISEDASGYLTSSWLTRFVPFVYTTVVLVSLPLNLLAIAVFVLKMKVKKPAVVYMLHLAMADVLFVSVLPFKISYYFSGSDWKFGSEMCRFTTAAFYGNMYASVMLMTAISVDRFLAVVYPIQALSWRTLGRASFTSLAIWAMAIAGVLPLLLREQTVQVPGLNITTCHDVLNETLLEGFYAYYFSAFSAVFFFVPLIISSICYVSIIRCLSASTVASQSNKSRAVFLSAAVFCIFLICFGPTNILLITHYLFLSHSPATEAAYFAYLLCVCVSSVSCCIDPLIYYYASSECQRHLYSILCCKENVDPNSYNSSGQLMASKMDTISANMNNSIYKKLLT
Particulars: for Relative potency (REC) GLM: average concentration ratio relative to P5 causing equal contractile response (REC = EC TRP ÷ EC P5). The method, then: as §1, with “agonists.” for “agonists. For the GLM and RLM assays, concentration-effect curves for all peptides were constructed by expressing the response of each agonist as a percentage (% P595) relative to the contraction caused by 95 μM (60 μg/mL) P5 (0.9±0.1 g tension: mean ±S.E.M. for n=12 in the GLM; 1.6±0.9 g tension: mean ±S.E.M. for n=36 in the RLM).”

Data set [4] has as its system thrombin receptor (rat thoracic aorta rings, intact endothelium). Particulars: for Relative potency (REC) RA: average concentration ratio relative to P5 causing equal relaxation response (REC = EC TRP ÷ EC P5).
Protocol: Thoracic RA rings (2 mm×3 mm), obtained from male albino Sprague Dawley rats, were equilibrated (about 1 h, 37° ) in the same organ bath buffer as was used for the LM tissue, and tension (baseline 1.0 g) was monitored isometrically using either Statham or Grass force-displacement transducers. The presence of an intact endothelium was ascertained by monitoring a relaxation response to acetylcholine (ACh, 1 μM) in a preparation that was submaximally (EC75) contracted by 0.1 μM noradrenaline (NA) in the presence of 0.1 mM ascorbic acid (to preserve the catecholamine). Only tissues yielding a relaxation concentration-response curve between 0.01 and 10 μM acetylcholine (maximal relaxation of 70 to 90%, relative to the tension developed by 0.1 μM NA) were used for the further evaluation of the receptor-derived peptides. The assay of TRP responsiveness was done (e.g. see FIG. 1) on tissues that were precontacted with 0.1 μM NA at 30 min time intervals. Tissues were washed approx. 5 min after the application of TRPs. […] For purposes of comparison, the same stock solutions of an individual peptide were evaluated, relative to P5, in both the RA and LM bioassays. When possible, both assays were done simultaneously on the same day.
Weighed peptide samples were routinely dissolved in 50 mM phosphate buffer, pH 7.4, to yield stock solutions, from which volumes of up to 0.2 mL were added directly to the organ bath; the concentrations of all stock solutions used were verified by quantitative amino acid analysis of aliquots. Pr-P4 and Pr-P4--NH2 were dissolved in 40 mM phosphate buffer, pH 7.4, containing 20% v/v absolute ethanol (i.e. 8 Vol of the above 50 mM phosphate buffer +2 Vol. ethanol). […] Indomethacin was dissolved in ethanol, such that the final ethanol concentration in the organ bath was at or lower than 0.01% v/v; this concentration of ethanol alone had no effect on the bioassay systems.
Data set [5] relates to thrombin receptor (LM and RA assays). In words: Activity of cyclic TRPs in the bioassays previously described (assay not specified). Format: cell-based. Particulars: concentration tested 9 to 200 μM, differs per compound. The method, then: as §1, with “Only tissues responding well to all three agonists were used further for the evaluation of the biological activities of P5 and other peptide agonists. For the GLM and RLM assays, concentration-effect curves for all peptides were constructed by expressing the response of each agonist as a percentage (% P595) relative to the contraction caused by 95 μM (60 μg/mL) P5 (0.9±0.1 g tension: mean ±S.E.M. for n=12 in the GLM; 1.6±0.9 g tension: mean ±S.E.M. for n=36 in the RLM).” left out
Thoracic RA rings (2 mm×3 mm), obtained from male albino Sprague Dawley rats, were equilibrated (about 1 h, 37° ) in the same organ bath buffer as was used for the LM tissue, and tension (baseline 1.0 g) was monitored isometrically using either Statham or Grass force-displacement transducers. […] Therefore, to construct concentration-effect curves and to normalize data between individual preparations, the relaxation responses to P5 and to the other TRPs were expressed as a percentage of the relaxation caused by 215 μM (137 μg/mL) of P5 (% P5215). For purposes of comparison, the same stock solutions of an individual peptide were evaluated, relative to P5, in both the RA and LM bioassays. […]
Cyclic TRPs were evaluated using the bioassays previously described.

Data set [6] concerns thrombin receptor (gastric longitudinal muscle strips). In words: Gastric longitudinal muscle (LM) assay, either or both GLM and RLM. Format: cell-based. The method, then: LM: Either or both GLM and RLM
The guinea pig gastric longitudinal muscle (GLM) strips and the rat thoracic aorta (RA) ring preparations were isolated as previously described 14, 15. In brief, gastric LM strips (3×10 mm), obtained from male albino Hartley strain guinea pigs were equilibrated for about 1.5 h at 37° (in an aerated (95% O2 /5% CO2) Krebs-Henseleit buffer (3 mL) of the following composition (in mM): NaCl, 118; KCl, 4.7; CaCl2, 2.5; MgCl2, 1.2; NaHCO3, 25; KH2 PO4, 1.2; and glucose, 10. The pH was maintained at 7.4. Rat gastric LM strips (3×10 mm) were obtained, as for the GLM strips, from male albino Sprague Dawley animals (250-300 g). The stomach, opened along the greater curvature, was stripped free of all mucosal tissue under microscopic visualization and longitudinal tissue strips were cut exactly at right angles to the visible circular muscle bundles. Tissue strips were pre-equilibrated in the buffer described above. […] Contractions were monitored isometrically using Statham force-displacement transducers. […]
Weighed peptide samples were routinely dissolved in 50 mM phosphate buffer, pH 7.4, to yield stock solutions, from which volumes of up to 0.2 mL were added directly to the organ bath; the concentrations of all stock solutions used were verified by quantitative amino acid analysis of aliquots. […]

Data set [7] relates to platelets. The following applies: reported previously; cited from earlier work.

Residues, ends and D or L forms follow the SMILES beside them.

As for `CC(C)C[C@H](NC(=O)[C@H](CC(C)C)NC(=O)[C@H](Cc1ccccc1)NC(=O)[C@@H](N)CO)C(=O)N[C@@H](CCCNC(=N)N)C(=O)O` [P5, S42 FLLR46, reference compound], the “Recovery of intact peptide from organ bath (HPLC)” value is “Quantitative recovery” in data set [1] (RA organ bath) and “essentially quantitative recovery” in data set [1] (RLM organ bath). The “Relative potency (REC) RLM” value in data set [2] is on record as 1. Also, the “Relative potency (REC) GLM” value in data set [3] turned out to be 1. In addition, in data set [4], the “Relative potency (REC) RA” value was 1.
On to `CC(C)C[C@@H]1NC(=O)[C@H](Cc2ccccc2)NC(=O)[C@H](CCCNC(=N)N)NC(=O)[C@H](CC(C)C)NC1=O` (cyclo(FLLR)), for which the “Activity relative to SFLLR (SEQ ID NO:2) (P-5) (ECcyclic /ECP-5)” value in data set [5] is listed as 2.
On the same count and under the same terms, under `CC(C)C[C@@H]1NC(=O)[C@H](Cc2ccccc2)NC(=O)[C@H](CO)NC(=O)[C@H](CCCNC(=N)N)NC(=O)[C@H](CC(C)C)NC1=O` stands “not active at this concentration”.
With `CC(C)C[C@H](NC(=O)[C@H](CC(C)C)NC(=O)[C@H](Cc1ccccc1)NC(=O)[C@@H](N)CO)C(=O)N[C@@H](CCCNC(=N)N)C(N)=O` [P5-NH-2, S42 FLLR46 -amide], in data set [6], the Desensitization entry is “did not”. Also, the “Recovery of intact peptide from organ bath (HPLC)” value in data set [1] (RA organ bath) and in data set [1] (RLM organ bath) was “recovered essentially intact” throughout. Besides, in data set [2], the “Relative potency (REC) RLM” value was 0.2. The “Desensitization on repeated administration” value in data set [3] (GLM) was “not”. Besides, the “Relative potency (REC) GLM” value in data set [3] stood at 0.1. Also, in data set [4] (RA, precontracted with 0.1 μM noradrenaline), the “Agonist (relaxation) activity” value is reported as “transient relaxation”. In addition, in data set [4], the “Relative potency (REC) RA” value is listed as 0.1.
In the case of `CC(C)C[C@@H]1NC(=O)[C@H](Cc2ccccc2)NC(=O)CNC(=O)[C@H](CCCNC(=N)N)NC(=O)[C@H](CC(C)C)NC1=O` (cyclo(FLLRG)), the “Activity relative to SFLLR (SEQ ID NO:2) (P-5) (ECcyclic /ECP-5)” value in data set [5] is recorded as 4.
Consider SFALR, for which the “Activity in platelets” value in data set [7] is given as “little impact on the activity”.
